# Assay results: patent publication US8029793B2, “Methods for inhibiting cell proliferation” (Chugai Seiyaku Kabushiki Kaisha, priority 2000, dated 2011)
# Columns and labels:
# [1] = system: KTA-2 cell line; assay: PTHrP stimulation test (3H-TdR incorporation); assay type: cell-based, human; settings: PTHrP(34-53) 0, 1, 10, 100 ng/mL, trypsin treatment at 24 hours and at 48 hours after addition
# Procedure: (§1) Briefly, anaplastic thyroid cell lines TTA-1 (hatched bars), TTA-2 (solid bars), and KTA-2 (unfilled bars) were seeded at 1×10^4 cells per well in a 96-well plate. Cells were incubated for two days in complete medium and then shifted to serum-free medium for day 3. Cells were treated with PTHrP (34-53) at 0, 1, 10, and 100 ng/mL and treated with trypsin 24 (top panel) and 48 (bottom panel) hours later. Cells were labeled with ^3H-TdR for 6 hours (0.25 μCi/well) and incorporation of label was measured by liquid scintillation counting. Measurements were performed in triplicate and average results are presented.
# (§2) After treating TTA-1, TTA-2, and KTA-2 with trypsin, the number of viable cells not stained with trypan blue was counted with a hemocytometer. Subsequently, 1×10^4 cells were inoculated on a 96-well multi-plate (Falcon), and then cultured in a CO2 incubator at 37° C. for 2 days. On day 2 after culturing, the culture solution was replaced by a serum-free medium, and then culturing was performed for 1 day. PTHrP(34-53) (Calbiochem) at concentrations of 0 (PTHrP-free), 1, 10 and 100 ng/mL were added, followed by treatment with trypsin 24 and 48 hours later.
# (§3) The cells were labeled with ^3H-TdR for 6 hours (0.25 μCi/well), collected, and then incorporation of ^3H-TdR was measured using a liquid scintillation counter. […]
# [2] = system: TTA-1 cell line; assay: PTHrP stimulation test (3H-TdR incorporation); assay type: cell-based, human; settings: PTHrP(34-53) 0, 1, 10, 100 ng/mL, trypsin treatment at 24 hours and at 48 hours after addition
# Procedure: as §1, §2, §3
substance,measurement,setting,value
PTHrP(34-53): peptide fragment consisting the sequence of amino acids 34 to 53 of parathyroid hormone related peptide (Calbiochem) (AEIRATSEVSPNSKPSPNTK; listed as Homo sapiens),cell proliferation (incorporation of 3H-TdR),[1],proliferate depending on the concentration of PTHrP
same,cell proliferation (incorporation of 3H-TdR),[2],proliferate depending on the concentration of PTHrP
